Measured values as given in ChEMBL document CHEMBL3137667, “[Drug-induced liver injury; fourteenth updated edition of the bibliographic database of liver injuries and related drugs]” (Gastroenterol Clin Biol, 2004).

What was measured:
[1] = human, serum, 4383 h
[2] = Highest frequency of acute liver toxicity observed during clinical trials, expressed as a percentage. [column '% AIGUE' in source]; conditions: human
[3] = human
[4] = human; remark: listed apart in the source
[5] = human; remark: listed apart in the source
[6] = human; remark: listed apart in the source
[7] = Highest frequency of moderate liver toxicity observed during clinical trials, expressed as a percentage. [column '% BIOL' in source]; conditions: human
[8] = human; remark: listed apart in the source
[9] = human, serum
[10] = human; remark: listed apart in the source
[11] = human; remark: listed apart in the source
[12] = human; remark: listed apart in the source
[13] = human, serum; remark: listed apart in the source
[14] = human; remark: listed apart in the source
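Wherever Hepatotoxicity (association with vascular disease) is given: count of indexed literature references reporting vascular liver injury in humans, e.g. peliosis hepatitis, hepatic veno-occlusive disease or Budd-Chiari syndrome.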
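Wherever Hepatotoxicity (benign tumour) is given: value is a count of indexed literature references citing a benign tumour confirmed by histopathology.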
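Wherever Hepatotoxicity (choleostasis) is given: human cholestatic liver injury, shown by histopathology or by peak ALT or AST elevation over alkaline phosphatase ratio below 2, value counts indexed literature reports.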
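Wherever Hepatotoxicity (chronic liver disease) is given: chronic liver injury confirmed by histopathology or persistently raised serum aminotransferase activity beyond 6 months, value given as the count of indexed literature references.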
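Wherever Hepatotoxicity (cirrhosis) is given: value is a count of indexed literature references reporting cirrhosis confirmed by histopathology.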
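Wherever Hepatotoxicity (cytolytic) is given: human cytolytic liver injury, shown by histopathology or by a ratio above 5 of peak ALT or AST elevation to alkaline phosphatase elevation, value counts indexed references.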
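Wherever Hepatotoxicity (granulomatous hepatitis) is given: value is a count of indexed literature references reporting granulomatous liver disease confirmed by histopathology.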
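Wherever Hepatotoxicity (malignant tumour) is given: malignant tumour confirmed by histopathology, value gives the count of indexed literature references reporting it.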
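Wherever Hepatotoxicity (severe hepatitis) is given: human clinical data: severe hepatitis, meaning potentially life-threatening liver failure or clinically observed cases, the value counts how many indexed literature references report it.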
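Wherever Hepatotoxicity (steatosis) is given: steatosis confirmed by histopathology, value is the count of indexed references.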

Row | Structure (SMILES) | Hepatotoxicity (chronic liver disease) [1] | Hepatotoxicity (acute) [2] | Hepatotoxicity (steatosis) [3] | Hepatotoxicity (association with vascular disease) [4] | Hepatotoxicity (cirrhosis) [5] | Hepatotoxicity (benign tumour) [6] | Hepatotoxicity (moderate) [7] | Hepatotoxicity (granulomatous hepatitis) [8] | Hepatotoxicity (moderate) [9] | Hepatotoxicity (malignant tumour) [10] | Hepatotoxicity (cytolytic) [11] | Hepatotoxicity (choleostasis) [12] | Hepatotoxicity (acute) [13] | Hepatotoxicity (severe hepatitis) [14]
1 | CN[C@@H]1[C@@H](O)[C@@H](O[C@@H]2[C@@H](O)[C@H](O[C@H]3O[C@H](CN)[C@@H](O)[C@H](O)[C@H]3O)[C@@H](N)C[C@H]2NC(=O)[C@@H](O)CN)OC[C@]1(C)O [ISEPAMICIN] | 0 | 0% | 0 | 0 | 0 | 0 | 30% | 0 | 22 | 0 | 0 | 0 | 0 | 0
2 | CC(=O)OCC(=O)[C@@]1(O)CC[C@H]2[C@@H]3CCC4=CC(=O)C=C[C@]4(C)[C@@]3(F)[C@@H](O)C[C@@]21C [ISOFLUPREDONE ACETATE] | 0 | 0% | 0 | 0 | 0 | 0 | 0% | 0 | 2 | 0 | 0 | 0 | 0 | 0
3 | COC(=O)C1=C(C)NC(C)=C(C(=O)OC(C)C)C1c1cccc2nonc12 (stereo not given) [ISRADIPINE] | 0 | 0% | 0 | 0 | 0 | 0 | 8.3% | 0 | 6 | 0 | 0 | 0 | 0 | 0
4 | CNC1(c2ccccc2Cl)CCCCC1=O (stereo not given) [KETAMINE] | 0 | 0% | 0 | 0 | 0 | 0 | 23.5% | 0 | 2 | 0 | 0 | 0 | 0 | 0
5 | CN1CCC(=C2c3ccccc3CC(=O)c3sccc32)CC1 [KETOTIFEN] | 0 | 0% | 0 | 0 | 0 | 0 | 0% | 0 | 0 | 0 | 0 | 0 | 1 | 0
6 | CCOC(=O)C1=C(C)NC(C)=C(C(=O)OCC)C1c1ccccc1/C=C/C(=O)OC(C)(C)C [LACIDIPINE] | 0 | 0% | 0 | 0 | 0 | 0 | 0% | 0 | 1 | 0 | 0 | 0 | 0 | 0
7 | NCCNC(=O)c1ccc(Cl)cn1 [LAZABEMIDE] | 0 | 0% | 0 | 0 | 0 | 0 | 0.3% | 0 | 1 | 0 | 0 | 0 | 0 | 0
8 | Cc1oc(=O)oc1COC(=O)[C@@H]1N2C(=O)[C@@H](NC(=O)[C@H](N)c3ccccc3)[C@H]2SC1(C)C [LENAMPICILLIN] | 0 | 0% | 0 | 0 | 0 | 0 | 22% | 0 | 9 | 0 | 0 | 0 | 0 | 0
9 | O=C(CCCN1CCC(C(=O)c2ccc(F)cc2)CC1)c1ccc(F)cc1 [LENPERONE] | 0 | 0% | 0 | 0 | 0 | 0 | 0% | 0 | 2 | 0 | 0 | 0 | 0 | 0
10 | CCNC(=O)[C@@H]1CCCN1C(=O)[C@H](CCCNC(=N)N)NC(=O)[C@H](CC(C)C)NC(=O)[C@@H](CC(C)C)NC(=O)[C@H](Cc1ccc(O)cc1)NC(=O)[C@H](CO)NC(=O)[C@H](Cc1c[nH]c2ccccc12)NC(=O)[C@H](Cc1c[nH]cn1)NC(=O)[C@@H]1CCC(=O)N1 [LEUPROLIDE] | 0 | 0% | 0 | 0 | 0 | 0 | 2.4% | 0 | 3 | 0 | 0 | 0 | 0 | 0
11 | Clc1cccc(C(c2ccc3[nH]cnc3c2)n2ccnc2)c1 (stereo not given) [LIAROZOLE] | 0 | 0% | 0 | 0 | 0 | 0 | 2.9% | 0 | 1 | 0 | 0 | 0 | 0 | 0
12 | CC(C)(C)c1ccc(CCC(O)COc2ccc(C(=O)O)cc2)cc1 (stereo not given) [LIFIBROL] | 0 | 0% | 0 | 0 | 0 | 0 | 3.9% | 0 | 1 | 0 | 0 | 0 | 0 | 0
13 | CCC[C@@H]1C[C@@H](C(=O)N[C@@H]([C@H]2O[C@H](SC)[C@H](O)[C@@H](O)[C@H]2O)[C@@H](C)O)N(C)C1 [LINCOMYCIN] | 0 | 0% | 0 | 0 | 0 | 0 | 0% | 0 | 2 | 0 | 0 | 0 | 0 | 0
14 | O=C(O)c1nn(Cc2ccc(Cl)cc2Cl)c2ccccc12 [LONIDAMINE] | 0 | 0% | 0 | 0 | 0 | 0 | 6.4% | 0 | 4 | 0 | 0 | 0 | 0 | 0
15 | Cc1cccc(C)c1OCC(=O)N[C@@H](Cc1ccccc1)[C@@H](O)C[C@H](Cc1ccccc1)NC(=O)[C@H](C(C)C)N1CCCNC1=O [LOPINAVIR] | 0 | 8% | 0 | 0 | 0 | 0 | 0% | 0 | 1 | 0 | 2 | 0 | 2 | 0
